Results reported in US11958828B1, “4,5-bis(4-bromophenyl)-1-hexyl-2-(3-pyridyl)-1H-imidazole as an antimicrobial compound” (KING FAISAL UNIVERSITY, priority 2023, dated 2024).

Assays:
Assay type in all cases: cell-based
Details in all cases: after 10, 20, 40 and 60 min at all dilutions 1:100, 1:200, 1:400, 1:800
Candida albicans = assay: Antimicrobial testing by agar dilution, Candida albicans
Procedure: (§1) The antimicrobial properties of the 4,5-bis(4-bromophenyl)-1-hexyl-2-(3-Pyridyl)-1H-imidazole (5) were studied by the method of agar dilution. Test solutions of each compound were prepared in concentration of 1% using dimethylformamide as a solvent then they are diluted in physiological solution to obtain the final experimental dilutions 1:100, 1:200, 1:400, 1:800. The effect of these substances were compared with furacillin in a controllable study. The testing microbes used were gram positive bacteria Staphylococcus aureus, gram negative bacteria Escherichia coli, Pseudomonas aeruginosa and Candida albicans fungi were taken. The experiments used for this survey were meat-pentonlu agar (EPA) for cultivation of bacteria and Saburo environment for fungi. Each experiment used 1 ml of test solution on each plate 500 min. Add 2 drops of emulsified with microbes feel. All experimental samples were taken from the agar after 10, 20, 40, 60 minutes in the environment on the basis of Patrk planted. Bacteria were cultivated at a temperature of 37° C. for 1 day and the mushroom was kept in a thermostat for […] at a temperature of 28° C. in the. Then results were checked.

Escherichia coli = assay: Antimicrobial testing by agar dilution, Escherichia coli
Procedure: as §1

Pseudomonas aeruginosa = assay: Antimicrobial testing by agar dilution, Pseudomonas aeruginosa
Procedure: as §1

Staphylococcus aureus = assay: Antimicrobial testing by agar dilution, Staphylococcus aureus
Procedure: as §1

Measured: inhibition activity (in words)

CCCCCCn1c(-c2cccnc2)nc(-c2ccc(Br)cc2)c1-c1ccc(Br)cc1 [4,5-bis(4-bromophenyl)-1-hexyl-2-(3-pyridyl)-1H-imidazole]
highest inhibition activity: all assays above
